For 4 compounds, melting point results are on record in patent US6380239B1, “Substituted 1-oxo- and 1,3-dioxoisoindoline and method of reducing inflammatory cytokine levels” (Celgene Corporation, priority 1999, dated 2002).

Consider `Nc1cccc2c1CN(C(CCC(=O)O)C(=O)O)C2=O` (stereo not shown) [Example 14, 1-(4-Amino-1-oxoisoindolin-2-yl)propane-1,3-dicarboxylic acid], for which the melting point is 183 to 185 °C.
Then `Nc1cccc2c1C(=O)N(C(CCC(=O)O)C(=O)O)C2=O` (stereo not shown) [Example 16, 1-(4-Amino-1,3-dioxoisoindolin-2-yl)propane-1,3-dicarboxylic acid], with 198 to 200 °C; and `NC(=O)CCC(C(=O)O)N1C(=O)c2cccc([N+](=O)[O-])c2C1=O` (stereo not shown) [Example 17, 2-(4-Nitro-1,3-dioxoisoindolin-2-yl)-4-carbamoylbutanoic acid], with 182 to 184 °C; and `NC(=O)CCC(C(=O)O)N1C(=O)c2cccc(N)c2C1=O` (stereo not shown) [Example 18, 2-(4-Amino-1,3-dioxoisoindolin-2-yl)-4-carbamoylbutanoic acid], with 165 to 167 °C.
